Assay results from patent US8022206B2 (OSI Pharmaceuticals, LLC, priority 2008, dated 2011).
pIC50: −log10 of the molar value.

What follows are compounds tested against RON (human) (Homo sapiens, UniProt Q04912) (assay: RON (human) AlphaScreen kinase assay, Km of ATP). Settings: AlphaScreen, Km of ATP; read-out: RON biochemical IC50.
Assay type: biochemical
Description: (§1) Someone skilled in the art will appreciate that a variety of assay formats may be used to determine the activity of the compounds of this invention. For example, AlphaScreen (Amplified Luminescent Proximity Homogeneous Assay) technology was used with the kinases described below. Assay ATP concentrations for individual kinases are included in the text.
Desired compound is added in a final concentration of 1% DMSO with control being vehicle of DMSO alone. […] Enzyme is added to initiate the reaction and incubated for 30 min at RT. In subdued light, appropriate amount of PT66 donor and acceptor beads (diluted 1:260 from manufacturer's provision in a 25 mM Tris HCl (pH=7.5), 200 mM NaCl, 100 mM EDTA, 0.3% BSA buffer) are added to the wells. The plates, incubated for 1 h, are read on an AlphaQuest plate reader.

Chain of RON (human) (Q04912 25-1400): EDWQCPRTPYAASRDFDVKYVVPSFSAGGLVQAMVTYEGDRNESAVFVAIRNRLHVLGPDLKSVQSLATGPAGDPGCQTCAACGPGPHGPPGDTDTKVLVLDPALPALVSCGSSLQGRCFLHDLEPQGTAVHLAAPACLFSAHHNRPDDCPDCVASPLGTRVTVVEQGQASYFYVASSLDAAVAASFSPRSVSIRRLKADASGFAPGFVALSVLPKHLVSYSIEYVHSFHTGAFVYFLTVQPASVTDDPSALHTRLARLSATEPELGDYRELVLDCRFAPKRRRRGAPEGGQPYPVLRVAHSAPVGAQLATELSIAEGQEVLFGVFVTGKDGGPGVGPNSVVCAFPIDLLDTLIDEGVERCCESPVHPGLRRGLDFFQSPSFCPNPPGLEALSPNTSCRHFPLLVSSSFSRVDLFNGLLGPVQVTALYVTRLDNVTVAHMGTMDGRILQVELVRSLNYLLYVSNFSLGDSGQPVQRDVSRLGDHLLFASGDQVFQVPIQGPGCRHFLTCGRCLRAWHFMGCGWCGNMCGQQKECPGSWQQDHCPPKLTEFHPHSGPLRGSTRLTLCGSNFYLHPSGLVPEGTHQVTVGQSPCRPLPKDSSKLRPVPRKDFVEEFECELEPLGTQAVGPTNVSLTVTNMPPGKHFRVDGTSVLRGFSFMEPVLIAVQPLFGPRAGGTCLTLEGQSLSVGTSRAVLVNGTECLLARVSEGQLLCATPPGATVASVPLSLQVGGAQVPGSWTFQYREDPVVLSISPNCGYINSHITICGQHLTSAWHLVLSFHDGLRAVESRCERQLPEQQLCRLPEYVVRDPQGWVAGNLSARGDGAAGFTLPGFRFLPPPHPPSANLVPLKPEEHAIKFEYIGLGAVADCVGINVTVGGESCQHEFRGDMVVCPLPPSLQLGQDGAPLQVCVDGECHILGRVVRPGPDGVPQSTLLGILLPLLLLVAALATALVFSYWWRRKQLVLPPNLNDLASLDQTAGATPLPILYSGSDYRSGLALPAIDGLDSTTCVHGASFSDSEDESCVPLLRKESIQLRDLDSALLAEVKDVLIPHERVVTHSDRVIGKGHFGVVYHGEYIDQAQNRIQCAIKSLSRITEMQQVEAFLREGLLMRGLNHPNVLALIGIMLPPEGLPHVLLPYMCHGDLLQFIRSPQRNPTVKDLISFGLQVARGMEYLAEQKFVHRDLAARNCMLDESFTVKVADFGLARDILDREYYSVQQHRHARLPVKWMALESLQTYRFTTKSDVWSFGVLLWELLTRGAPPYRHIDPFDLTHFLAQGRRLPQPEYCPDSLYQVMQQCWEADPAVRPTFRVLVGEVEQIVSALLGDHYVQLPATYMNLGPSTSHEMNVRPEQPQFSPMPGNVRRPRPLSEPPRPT

First: C[C@@H](Oc1c(N)ncc2c(-c3ccc(C(=O)N4CCCCC4)cc3)coc12)c1c(Cl)ccc(F)c1Cl [Example 290, (4-{6-Amino-7-[(R)-1-(2,6-dichloro-3-fluorophenyl)ethoxy]furo[3,2-c]pyridin-3-yl}phenyl)piperidin-1-ylmethanone]
Second: C[C@@H](Oc1c(N)ncc2c(-c3ccc(CN4CCCCC4)s3)coc12)c1c(Cl)ccc(F)c1Cl [Example 215, 7-[(R)-1-(2,6-Dichloro-3-fluorophenyl)ethoxy]-3-(5-piperidin-1-ylmethylthiophen-2-yl)-furo[3,2-c]pyridin-6-ylamine]
The pIC50 of the first is lower: 5.30 to 6.30 for the first, greater than 6.30 for the second. The second is the more potent here.

First: C[C@@H](Oc1c(N)ncc2c(-c3ccc(CN4CCC(O)CC4)s3)coc12)c1c(Cl)ccc(F)c1Cl [Example 216, 1-(5-{6-Amino-7-[(R)-1-(2,6-dichloro-3-fluorophenyl)ethoxy]-furo[3,2-c]pyridin-3-yl}-thiophen-2-ylmethyl)piperidin-4-ol]
Second: CNC(=O)N1CC=C(c2coc3c(O[C@H](C)c4c(Cl)ccc(F)c4Cl)c(N)ncc23)CC1 [Example 35, 4-{6-Amino-7-[(R)-1-(2,6-dichloro-3-fluorophenyl)-ethoxy]-furo[3,2-c]pyridin-3-yl}-3,6-dihydro-2H-pyridine-1-carboxylic acid methylamide]
The pIC50 of the first is higher: greater than 6.30 for the first, 5.30 to 6.30 for the second. The first is the more potent here.

C[C@@H](Oc1c(N)ncc2c(-c3ccccc3)coc12)c1c(Cl)ccc(F)c1Cl [Example 3, 7-[(R)-1-(2,6-dichloro-3-fluorophenyl)-ethoxy]-3-phenyl-furo[3,2-c]pyridin-6-ylamine] and C[C@@H](Oc1c(N)ncc2c(-c3ccncc3)coc12)c1c(Cl)ccc(F)c1Cl [Example 127, 7-[(R)-(2,6-Dichloro-3-fluorophenyl)ethoxy]-3-pyridin-4-ylfuro[3,2-c]pyridin-6-ylamine] fall in the same range of pIC50: 5.30 to 6.30 for the first, 5.30 to 6.30 for the second.

First: C[C@@H](Oc1c(N)ncc2c(C3=CCN(C(=O)[C@@H](N)CO)CC3)coc12)c1c(Cl)ccc(F)c1Cl [Example 254, (2S)-2-Amino-1-[4-{6-amino-7-[(1R)-1-(2,6-dichloro-3-fluoro-phenyl)ethoxy]furo[3,2-c]pyridin-3-yl}-3,6-dihydropyridin-1(2H)-yl]-3-hydroxypropan-1-one]
Second: CC(=O)N1CC=C(c2coc3c(O[C@H](C)c4c(Cl)ccc(F)c4Cl)c(N)ncc23)CC1 [Example 12, 1-(4-{6-Amino-7-[(R)-1-(2,6-dichloro-3-fluorophenyl)-ethoxy]-furo[3,2-c]pyridin-3-yl}-3,6-dihydro-2H-pyridin-1-yl)-ethanone]
The pIC50 of the first is higher: greater than 6.30 for the first, 5.30 to 6.30 for the second.

CC(=O)Nc1ccc(-c2coc3c(O[C@H](C)c4c(Cl)ccc(F)c4Cl)c(N)ncc23)cn1 [Example 120, N-(5-{6-Amino-7-[(R)-1-(2,6-dichloro-3-fluorophenyl)ethoxy]furo[3,2-c]pyridin-3-yl}pyridin-2-yl)acetamide] and C[C@@H](Oc1c(N)ncc2c(-c3cccnc3)coc12)c1c(Cl)ccc(F)c1Cl [Example 126, 7-[(R)-(2,6-Dichloro-3-fluorophenyl)ethoxy]-3-pyridin-3-ylfuro[3,2-c]pyridin-6-ylamine] fall in the same range of pIC50: 5.30 to 6.30 for the first, 5.30 to 6.30 for the second.

C[C@@H](Oc1c(N)ncc2c(-c3cnn(C4CCNCC4)c3)coc12)c1ccncc1 [Example 397, 3-(1-Piperidin-4-yl-1H-pyrazol-4-yl)-7-((R)-1-pyridin-4-yl-ethoxy)furo[3,2-c]pyridin-6-ylamine] and CC(Oc1c(N)ncc2c(-c3cnn(C4CCNCC4)c3)coc12)c1cccc(F)c1Cl (stereo not drawn) [Example 351, 7-[1-(2-Chloro-3-fluorophenyl)ethoxy]-3-(1-piperidin-4-yl-1H-pyrazol-4-yl)-furo[3,2-c]pyridin-6-ylamine] fall in the same range of pIC50: 5.30 to 6.30 for the first, 5.30 to 6.30 for the second.

C[C@@H](Oc1c(N)ncc2c(C3=CCN(C(=O)N(C)C)CC3)coc12)c1c(Cl)ccc(F)c1Cl [Example 26, 4-{6-Amino-7-[(R)-1-(2,6-dichloro-3-fluorophenyl)-ethoxy]-furo[3,2-c]pyridin-3-yl}-3,6-dihydro-2H-pyridine-1-carboxylic acid Dimethylamide] and COC(=O)N1CC=C(c2coc3c(O[C@H](C)c4c(Cl)ccc(F)c4Cl)c(N)ncc23)CC1 [Example 50, 4-{6-Amino-7-[(R)-1-(2,6-dichloro-3-fluorophenyl)-ethoxy]-furo[3,2-c]pyridin-3-yl}-3,6-dihydro-2H-pyridine-1-carboxylic acid methyl ester] fall in the same range of pIC50: 5.30 to 6.30 for the first, 5.30 to 6.30 for the second.

C[C@@H](Oc1c(N)ncc2c(C3=CCNCC3)coc12)c1c(Cl)ccc(F)c1Cl [Example 8, 7-[(R)-1-(2,6-Dichloro-3-fluorophenyl)ethoxy]-3-(1,2,3,6-tetrahydropyridin-4-yl)-furo[3,2-c]pyridin-6-ylamine] and C[C@@H](Oc1c(N)ncc2c(C3=CCN(S(N)(=O)=O)CC3)coc12)c1c(Cl)ccc(F)c1Cl [Example 141, 4-{6-Amino-7-[(1R)-1-(2,6-dichloro-3-fluorophenyl)ethoxy]furo[3,2-c]pyridin-3-yl}-3,6-dihydropyridine-1(2H)-sulfonamide] fall in the same range of pIC50: 5.30 to 6.30 for the first, 5.30 to 6.30 for the second.

First: CC(=O)N1CCC(n2cc(-c3coc4c(O[C@H](C)c5c(Cl)ccc(F)c5Cl)c(N)ncc34)cn2)CC1 [Example 276, 1-[4-(4-{6-Amino-7-[(1R)-1-(2,6-dichloro-3-fluorophenyl)ethoxy]furo[3,2-c]pyridin-3-yl}-1H-pyrazol-1-yl)piperidin-1-yl]ethanone]
Second: CC(Oc1c(N)ncc2c(-c3cnn(C4CCNCC4)c3)coc12)c1c(Cl)ccc(Cl)c1Cl (stereo not drawn) [Example 349, 3-(1-Piperidin-4-yl-1H-pyrazol-4-yl)-7-[1-(2,3,6-trichlorophenyl)-ethoxy]furo[3,2-c]pyridin-6-ylamine]
The pIC50 of the first is lower: 5.30 to 6.30 for the first, greater than 6.30 for the second. The second is the more potent here.

C=CCC(Oc1c(N)ncc2c(-c3cnn(C4CCNCC4)c3)coc12)c1c(Cl)ccc(F)c1Cl (stereo not drawn) [Example 358, 7-[1-(2,6-Dichloro-3-fluorophenyl)but-3-enyloxy]-3-(1-piperidin-4-yl-1H-pyrazol-4-yl)furo[3,2-c]pyridin-6-ylamine] and CCC(Oc1c(N)ncc2c(-c3cnn(C4CCNCC4)c3)coc12)c1c(Cl)ccc(F)c1Cl (stereo not drawn) [Example 350] cannot be ordered by pIC50: greater than 6.30 for the first, greater than 6.30 for the second.

CC(Oc1c(N)ncc2c(-c3cnn(C4CCNCC4)c3)coc12)c1c(Cl)c(F)cc(F)c1Cl (stereo not drawn) [Example 154, 7-[1-(2,6-Dichloro-3,5-difluorophenyl)ethoxy]-3-[1-(piperidin-4-yl)-1H-pyrazol-4-yl]furo[3,2-c]pyridin-6-amine] and CC(Oc1c(N)ncc2c(-c3cnn(C4CCNCC4)c3)coc12)c1c(Cl)cc(Cl)cc1Cl (stereo not drawn) [Example 364, 3-(1-Piperidin-4-yl-1H-pyrazol-4-yl)-7-[1-(2,4,6-trichlorophenyl)-ethoxy]furo[3,2-c]pyridin-6-ylamine] cannot be ordered by pIC50: greater than 6.30 for the first, greater than 6.30 for the second.

CNC(=O)c1coc2c(O[C@H](C)c3c(Cl)ccc(F)c3Cl)c(N)ncc12 [Example 178, 6-Amino-7-[(R)-1-(2,6-dichloro-3-fluorophenyl)ethoxy]furo[3,2-c]pyridine-3-carboxylic acid methylamide] and C[C@@H](Oc1c(N)ncc2c(-c3cn[nH]c3)coc12)c1c(Cl)ccc(F)c1Cl [Example 6, 7-[(R)-1-(2,6-Dichloro-3-fluorophenyl)ethoxy]-3-(1H-pyrazol-4-yl)-furo[3,2-c]pyridin-6-ylamine] fall in the same range of pIC50: 5.30 to 6.30 for the first, 5.30 to 6.30 for the second.

C[C@@H](Oc1c(N)ncc2c(-c3ccccn3)coc12)c1c(Cl)ccc(F)c1Cl [Example 137, 7-[(R)-1-(2,6-Dichloro-3-fluorophenyl)-ethoxy]-3-pyridin-2-ylfuro[3,2-c]pyridin-6-ylamine] and C[C@@H](Oc1c(N)ncc2c(C3CCNCC3)coc12)c1c(Cl)ccc(F)c1Cl [Example 25, 7-[(R)-1-(2,6-Dichloro-3-fluorophenyl)-ethoxy]-3-piperidin-4-yl-furo[3,2-c]pyridin-6-ylamine] fall in the same range of pIC50: 5.30 to 6.30 for the first, 5.30 to 6.30 for the second.

Compared with CCCC(Oc1c(N)ncc2c(-c3cnn(C4CCNCC4)c3)coc12)c1c(Cl)ccc(F)c1Cl (stereo not drawn) [Example 357, 7-[1-(2,6-Dichloro-3-fluorophenyl)butoxy]-3-(1-piperidin-4-yl-1H-pyrazol-4-yl)furo[3,2-c]pyridin-6-ylamine], C#CCC(Oc1c(N)ncc2c(-c3cnn(C4CCNCC4)c3)coc12)c1c(Cl)ccc(F)c1Cl (stereo not drawn) [Example 353, 7-[1-(2,6-Dichloro-3-fluorophenyl)but-3-ynyloxy]-3-(1-piperidin-4-yl-1H-pyrazol-4-yl)furo[3,2-c]pyridin-6-ylamine] is lower in pIC50: greater than 6.30 for the first, 5.30 to 6.30 for the second. The first is the more potent here.

Nc1ncc2c(-c3cnn(C4CCNCC4)c3)coc2c1OCc1c(Cl)ccc(F)c1Cl [Example 339, 7-(2,6-Dichloro-3-fluorobenzyloxy)-3-(1-piperidin-4-yl-1H-pyrazol-4-yl)-furo[3,2-c]pyridin-6-ylamine] and CC(Oc1c(N)ncc2c(-c3cnn(C4CCNCC4)c3)coc12)c1cc(F)ccc1Cl (stereo not drawn) [Example 336, 7-[1-(2-Chloro-5-fluorophenyl)ethoxy]-3-(1-piperidin-4-yl-1H-pyrazol-4-yl)-furo[3,2-c]pyridin-6-ylamine] fall in the same range of pIC50: 5.30 to 6.30 for the first, 5.30 to 6.30 for the second.

These compounds were tested against MET (human) (Homo sapiens, UniProt P08581) (assay: MET (human) AlphaScreen kinase assay, Km of ATP). Settings: AlphaScreen, Km of ATP; read-out: Met biochemical IC50.
Assay type: biochemical
Description: as §1
Desired compound is added in a final concentration of 1% DMSO with control being vehicle of DMSO alone. MET is diluted to the optimized concentration (optimized on a lot-by-lot basis) in an enzyme diluent buffer (50 mM Tris pH=7.4, 1% glycerol, 0.03% Brij35, 0.24 mM EGTA, 1 mM DTT, and 0.003% BSA). Enzyme is added to initiate the reaction and incubated for 60 min at RT. In subdued light, appropriate amount of PT66 donor and acceptor beads (diluted 1:260 from manufacturer's provision in a 25 mM Tris HCl (pH=7.5), 400 mM NaCl, 100 mM EDTA, 0.3% BSA buffer) are added to the wells. The plates, incubated for 1 h, are read on an AlphaQuest plate reader

Chain of MET (human) (P08581 25-1390): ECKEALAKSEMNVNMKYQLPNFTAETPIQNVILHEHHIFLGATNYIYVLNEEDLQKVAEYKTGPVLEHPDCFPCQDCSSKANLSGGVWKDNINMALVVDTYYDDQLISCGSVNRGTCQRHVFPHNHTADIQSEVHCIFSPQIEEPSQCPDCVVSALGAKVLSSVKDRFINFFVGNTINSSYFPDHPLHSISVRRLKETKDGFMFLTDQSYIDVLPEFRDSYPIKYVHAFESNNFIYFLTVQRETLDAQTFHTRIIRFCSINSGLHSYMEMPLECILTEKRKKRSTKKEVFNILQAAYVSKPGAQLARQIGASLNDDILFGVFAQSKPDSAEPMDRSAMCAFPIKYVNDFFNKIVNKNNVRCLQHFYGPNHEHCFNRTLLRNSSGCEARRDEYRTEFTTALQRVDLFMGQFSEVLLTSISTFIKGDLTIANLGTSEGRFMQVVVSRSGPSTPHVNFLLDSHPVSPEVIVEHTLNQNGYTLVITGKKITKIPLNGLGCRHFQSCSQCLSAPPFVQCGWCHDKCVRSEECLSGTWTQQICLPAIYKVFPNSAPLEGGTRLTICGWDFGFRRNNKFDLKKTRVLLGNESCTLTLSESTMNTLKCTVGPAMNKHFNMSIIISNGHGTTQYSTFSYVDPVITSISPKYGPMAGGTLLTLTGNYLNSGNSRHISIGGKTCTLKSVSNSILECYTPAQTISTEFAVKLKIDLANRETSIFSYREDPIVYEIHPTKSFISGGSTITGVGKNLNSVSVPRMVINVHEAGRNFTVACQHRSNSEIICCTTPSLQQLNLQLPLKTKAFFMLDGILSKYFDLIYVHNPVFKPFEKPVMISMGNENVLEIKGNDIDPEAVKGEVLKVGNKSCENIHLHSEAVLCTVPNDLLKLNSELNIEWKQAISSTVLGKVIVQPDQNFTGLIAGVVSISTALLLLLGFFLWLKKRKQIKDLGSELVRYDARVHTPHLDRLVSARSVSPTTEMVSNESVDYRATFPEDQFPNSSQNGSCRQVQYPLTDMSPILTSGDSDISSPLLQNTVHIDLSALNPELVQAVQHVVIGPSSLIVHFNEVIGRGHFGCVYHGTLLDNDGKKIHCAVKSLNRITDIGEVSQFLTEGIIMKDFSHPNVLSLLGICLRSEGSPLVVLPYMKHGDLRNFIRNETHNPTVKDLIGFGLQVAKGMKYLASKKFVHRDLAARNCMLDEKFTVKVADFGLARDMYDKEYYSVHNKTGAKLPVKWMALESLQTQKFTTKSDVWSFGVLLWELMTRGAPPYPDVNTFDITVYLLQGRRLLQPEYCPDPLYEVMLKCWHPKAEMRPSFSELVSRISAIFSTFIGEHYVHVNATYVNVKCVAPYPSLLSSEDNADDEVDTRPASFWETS

Compared with C[C@@H](Oc1c(N)ncc2c(-c3ccc(C(=O)N4CCCCC4)cc3)coc12)c1c(Cl)ccc(F)c1Cl [Example 290, (4-{6-Amino-7-[(R)-1-(2,6-dichloro-3-fluorophenyl)ethoxy]furo[3,2-c]pyridin-3-yl}phenyl)piperidin-1-ylmethanone], C[C@@H](Oc1c(N)ncc2c(-c3ccc(CN4CCCCC4)s3)coc12)c1c(Cl)ccc(F)c1Cl [Example 215, 7-[(R)-1-(2,6-Dichloro-3-fluorophenyl)ethoxy]-3-(5-piperidin-1-ylmethylthiophen-2-yl)-furo[3,2-c]pyridin-6-ylamine] is higher in pIC50: 5.30 to 6.30 for the first, greater than 6.30 for the second.

C[C@@H](Oc1c(N)ncc2c(-c3ccc(CN4CCC(O)CC4)s3)coc12)c1c(Cl)ccc(F)c1Cl [Example 216, 1-(5-{6-Amino-7-[(R)-1-(2,6-dichloro-3-fluorophenyl)ethoxy]-furo[3,2-c]pyridin-3-yl}-thiophen-2-ylmethyl)piperidin-4-ol] and C[C@@H](Oc1c(N)ncc2c(C3=CCN(C(=O)[C@@H](N)CO)CC3)coc12)c1c(Cl)ccc(F)c1Cl [Example 254, (2S)-2-Amino-1-[4-{6-amino-7-[(1R)-1-(2,6-dichloro-3-fluoro-phenyl)ethoxy]furo[3,2-c]pyridin-3-yl}-3,6-dihydropyridin-1(2H)-yl]-3-hydroxypropan-1-one] cannot be ordered by pIC50: greater than 6.30 for the first, greater than 6.30 for the second.

CC(=O)Nc1ccc(-c2coc3c(O[C@H](C)c4c(Cl)ccc(F)c4Cl)c(N)ncc23)cn1 [Example 120, N-(5-{6-Amino-7-[(R)-1-(2,6-dichloro-3-fluorophenyl)ethoxy]furo[3,2-c]pyridin-3-yl}pyridin-2-yl)acetamide] and C[C@@H](Oc1c(N)ncc2c(-c3cnn(C4CCNCC4)c3)coc12)c1ccncc1 [Example 397, 3-(1-Piperidin-4-yl-1H-pyrazol-4-yl)-7-((R)-1-pyridin-4-yl-ethoxy)furo[3,2-c]pyridin-6-ylamine] fall in the same range of pIC50: 5.30 to 6.30 for the first, 5.30 to 6.30 for the second.
